This is an account of results in ChEMBL document CHEMBL3632501, “New SIRT1 activator from alkaline hydrolysate of total saponins in the stems-leaves of Panax ginseng” (Bioorg Med Chem Lett, 2015).

The source made the active and inactive calls. The rule behind the calls is not given here.

As usually defined, the IC50 is the concentration that gives 50% inhibition. Low readings indicate inhibition by little substance, high ones a need for much substance.

In assay [1] the test system is HepG2. Description: Cytotoxicity against human HepG2 cells after 48 hrs by MTT assay. The assay is classed as functional, cell-based. Particulars: for IC50: HepG2, 48 h.
The subject of assay [2] is HL-60. In words: Cytotoxicity against human HL60 cells after 48 hrs by MTT assay. The assay is classed as functional, cell-based. The following applies: for IC50: HL-60, 48 h. In general terms: Tetrazolium assays rely on reduction of a dye to a coloured formazan, in cell work by metabolically active cells.
Assay [3] has as its target T1, NAD-dependent protein deacetylase sirtuin-1 (Homo sapiens) (UniProt Q96EB6).
T1 sequence (whole entry): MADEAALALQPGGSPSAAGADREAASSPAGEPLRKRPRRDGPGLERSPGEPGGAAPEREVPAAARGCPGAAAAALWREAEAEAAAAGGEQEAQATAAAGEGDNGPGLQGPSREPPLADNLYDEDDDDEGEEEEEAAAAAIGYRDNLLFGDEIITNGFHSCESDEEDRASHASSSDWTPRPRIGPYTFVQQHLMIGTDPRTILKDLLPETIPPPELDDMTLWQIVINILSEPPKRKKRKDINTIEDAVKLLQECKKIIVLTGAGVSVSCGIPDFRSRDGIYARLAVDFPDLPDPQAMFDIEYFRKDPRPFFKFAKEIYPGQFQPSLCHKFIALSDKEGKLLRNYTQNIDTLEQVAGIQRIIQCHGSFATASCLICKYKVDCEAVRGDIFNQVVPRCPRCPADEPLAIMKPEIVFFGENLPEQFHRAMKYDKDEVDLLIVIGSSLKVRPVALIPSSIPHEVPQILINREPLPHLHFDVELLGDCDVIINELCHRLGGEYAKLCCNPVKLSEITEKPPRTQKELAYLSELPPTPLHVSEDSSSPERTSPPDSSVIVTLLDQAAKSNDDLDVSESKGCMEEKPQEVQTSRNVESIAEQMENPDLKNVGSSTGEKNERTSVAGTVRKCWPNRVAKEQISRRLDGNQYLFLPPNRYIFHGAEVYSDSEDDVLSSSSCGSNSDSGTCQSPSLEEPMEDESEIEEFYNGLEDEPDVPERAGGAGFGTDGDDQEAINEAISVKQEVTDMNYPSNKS
In words: Activation of SIRT1 (unknown origin) after 45 mins by NAD/NADH enzyme-based fluorometric assay.

In the case of `CC(C)=CCC[C@@](C)(O)[C@H]1CC[C@]2(C)[C@@H]1[C@H](O)C[C@@H]1[C@@]3(C)CC[C@H](O)C(C)(C)[C@@H]3CC[C@]12C`, the results for the IC50 in assay [1] and in assay [2] were 69.1 µM and 23.4 µM, respectively. Besides, the outcome in assay [3] was Active.

For the molecule `CC(C)=CCC[C@@](C)(O)[C@H]1CC[C@]2(C)[C@@H]1[C@H](O)C[C@@H]1[C@@]3(C)CC[C@H](O)C(C)(C)[C@@H]3[C@@H](O)C[C@]12C`, the values for the IC50 in assay [1] and in assay [2] were 58.3 µM and 28.7 µM, respectively. In assay [3], the result was Active.

Consider `CC(C)=CCC[C@@](C)(O)[C@H]1CC[C@]2(C)[C@@H]1[C@H](O)C[C@@H]1[C@@]3(C)CC[C@H](O)C(C)(C)[C@@H]3[C@@H](O[C@@H]3O[C@H](CO)[C@@H](O)[C@H](O)[C@H]3O)C[C@]12C`, for which the IC50 in assay [1] and in assay [2] was > 200 µM each time. In assay [3], the result was inactive.

As for `C=C(CCC=C(C)C)[C@H]1CC[C@]2(C)[C@@H]1[C@H](O)C[C@@H]1[C@@]3(C)CC[C@H](O)C(C)(C)[C@@H]3[C@@H](O)C[C@]12C`, the 50% inhibitory concentration (IC50) in assay [1] turned out to be 42.1 µM; in assay [2], 18.3 µM. In assay [3], the outcome was Active.

Turning to `CC(=O)OC[C@H]1O[C@@H](O[C@H]2C[C@]3(C)[C@H](C[C@@H](O)[C@@H]4[C@@H]([C@@](C)(O)CCC=C(C)C)CC[C@]43C)[C@@]3(C)CC[C@H](O)C(C)(C)[C@H]23)[C@H](O)[C@@H](O)[C@@H]1O`, the IC50 in assay [1] was 169 µM; in assay [2], 128 µM. For the same molecule, in assay [3], the outcome was Active.

As for `CC(C)=CC/C=C(\C)[C@H]1CC[C@]2(C)[C@@H]1[C@H](O)C[C@@H]1[C@@]3(C)CC[C@H](O)C(C)(C)[C@@H]3[C@@H](O)C[C@]12C`, the Activity entry in assay [1] and in assay [2] was “Dose-dependent effect” in each case. For the same molecule, the figures for the IC50 in assay [1] and in assay [2] were 24.3 µM and 10.3 µM, respectively. In assay [3], the outcome was Active.

As to `CC(C)=CCC[C@](C)(O)[C@H]1CC[C@]2(C)[C@@H]1[C@H](O)C[C@@H]1[C@@]3(C)CC[C@H](O)C(C)(C)[C@@H]3[C@@H](O[C@@H]3O[C@H](CO)[C@@H](O)[C@H](O)[C@H]3O)C[C@]12C` [GINSENOSIDE RH1], the IC50 in assay [1] and in assay [2] was > 200 µM each time. Moreover, the outcome in assay [3] was Active.

With `CC(C)=CC/C=C(\C)[C@H]1CC[C@]2(C)[C@@H]1[C@H](O)C[C@@H]1[C@@]3(C)CC[C@H](O[C@@H]4O[C@H](CO)[C@@H](O)[C@H](O)[C@H]4O)C(C)(C)[C@@H]3[C@@H](O)C[C@]12C`, the values for the half-inhibitory concentration (IC50) in assay [1] and in assay [2] were 86.5 µM and 50.2 µM, respectively. The result in assay [3] was Active.

For `CC(C)=CCC[C@](C)(O)[C@H]1CC[C@]2(C)[C@@H]1[C@H](O)C[C@@H]1[C@@]3(C)CC[C@H](O)C(C)(C)[C@@H]3CC[C@]12C`, the IC50 came to 45.7 µM in assay [1] and 15.5 µM in assay [2]. The outcome in assay [3] was Active.

As for `C=C(C)[C@@H](O)C/C=C(\C)[C@H]1CC[C@]2(C)[C@@H]1[C@H](O)C[C@@H]1[C@@]3(C)CC[C@H](O[C@@H]4O[C@H](CO)[C@@H](O)[C@H](O)[C@H]4O)C(C)(C)[C@@H]3CC[C@]12C`, the IC50 in assay [1] was 44.1 µM; in assay [2], 24.8 µM. For the same molecule, in assay [3], the result was Active.

Consider `C=C(CCC=C(C)C)[C@H]1CC[C@]2(C)[C@@H]1[C@H](O)C[C@@H]1[C@@]3(C)CC[C@H](O[C@@H]4O[C@H](CO)[C@@H](O)[C@H](O)[C@H]4O[C@@H]4O[C@H](CO)[C@@H](O)[C@H](O)[C@H]4O)C(C)(C)[C@@H]3CC[C@]12C` [GISENOSIDE RK1], for which the IC50 was 79.8 µM in assay [1] and 58.1 µM in assay [2]. In assay [3], the outcome was Active.

Turning to `CC(C)=CC/C=C(\C)[C@H]1CC[C@]2(C)[C@@H]1[C@H](O)C[C@@H]1[C@@]3(C)CC[C@H](O)C(C)(C)[C@@H]3[C@@H](O[C@@H]3O[C@H](CO)[C@@H](O)[C@H](O)[C@H]3O[C@@H]3O[C@@H](C)[C@H](O)[C@@H](O)[C@H]3O)C[C@]12C`, the IC50 in assay [1] came to 152 µM; in assay [2], 82.8 µM. Also, in assay [3], the result was inactive.

`CC(C)=CCC[C@](C)(O)[C@H]1CC[C@]2(C)[C@@H]1[C@H](O)C[C@@H]1[C@@]3(C)CC[C@H](O)C(C)(C)[C@@H]3[C@@H](O)C[C@]12C`: the values for the IC50 in assay [1] and in assay [2] were 43.4 µM and 22.8 µM, respectively. Besides, the result in assay [3] was Active.

As to `CCC1=C[C@@H]2CN(C1)Cc1c([nH]c3ccccc13)[C@@](C(=O)OC)(c1cc3c(cc1OC)N(C)[C@H]1[C@@](O)(C(=O)OC)[C@H](OC(C)=O)[C@]4(CC)C=CCN5CC[C@]31[C@@H]54)C2` [VINORELBINE], the IC50 in assay [1] amounted to 23.1 µM; in assay [2], 11.5 µM.
